The compounds below were run on HT-29 cells (assay: HT-29 cell necrosis/necroptosis inhibition (TNF-α + SMAC mimetic + zVAD-FMK; CellTiter-Glo cell viability)). Settings: Homo sapiens, HT-29, 20 h, read-out: EC50 (Cell activity; Necrosis/Necroptosis Inhibitory Activity, Compounds 1-142).
Assay type: cell-based
Method in brief: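 HT-29 cells (~5,000/well) were switched to FBS-free McCOY's 5A holding TNF-α (10 ng/ml), SMAC mimetic (6 μM) and zVAD-FMK (10 μM), then dosed with a 10-point 1:3 series for 20 h at 37 °C. CellTiter-Glo luminescence gave viability; geometric mean EC50 from duplicates.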
For `Cc1nn(C[C@H]2CO2)c(C)c1-c1nc(N2CCN(C(=O)N3N=CC[C@H]3c3cc(F)cc(C#N)c3)CC2)ncc1F` [Compound 134, 3-((S)-1-(4-(4-(3,5-dimethyl-1-(((S)-oxiran-2-yl)methyl)-1H-pyrazol-4-yl)-5-fluoropyrimidin-2-yl)piperazine-1-carbonyl)-4,5-dihydro-1H-pyrazol-5-yl)-5-fluorobenzonitrile], the EC50 was 0.1 to 100 nM.

Same assay, conditions: Homo sapiens; HT-29 cells, TNF-α 10 ng/ml + SMAC mimetic 6 μM + zVAD-FMK 10 μM, 20 hours; geometric mean, 10 points in duplicate; read-out: EC50 (Cell activity; Necrosis/Necroptosis Inhibitory Activity, Compounds 1-142)
Compound `N#Cc1cccc([C@@H]2CC=NN2C(=O)N2CCN(c3ncc(F)c(-n4cc(C(N)=O)cn4)n3)CC2)c1` [Compound 109, (S)-1-(2-(4-(5-(3-cyanophenyl)-4,5-dihydro-1H-pyrazole-1-carbonyl)piperazin-1-yl)-5-fluoropyrimidin-4-yl)-1H-pyrazole-4-carboxamide] has an EC50 of 0.1 to 100 nM.
For `Cc1nn(-c2nc(N3CCN(C(=O)N4N=CC[C@H]4c4cc(F)cc(F)c4)CC3)ncc2F)c(=O)n1C` [Compound 95, (S)-2-(2-(4-(5-(3,5-difluorophenyl)-4,5-dihydro-1H-pyrazole-1-carbonyl)piperazin-1-yl)-5-fluoropyrimidin-4-yl)-4,5-dimethyl-2,4-dihydro-3H-1,2,4-triazol-3-one], the EC50 was 0.1 to 100 nM.
For `N#Cc1cc(F)cc([C@@H]2CC=NN2C(=O)N2CCN(c3ncc(F)c(-c4ncc[nH]4)n3)CC2)c1` [Compound 112, (S)-3-fluoro-5-(1-(4-(5-fluoro-4-(1H-imidazol-2-yl)pyrimidin-2-yl)piperazine-1-carbonyl)-4,5-dihydro-1H-pyrazol-5-yl)benzonitrile], the EC50 was 0.1 to 100 nM.
`NC(=O)c1c[nH]c(-c2ccnc(N3CCN(C(=O)N4N=CC[C@H]4c4cc(F)cc(F)c4)CC3)n2)c1` [Compound 10, (S)-5-(2-(4-(5-(3,5-difluorophenyl)-4,5-dihydro-1H-pyrazole-1-carbonyl)piperazin-1-yl)pyrimidin-4-yl)-1H-pyrrole-3-carboxamide] was tested, and the EC50 was 0.1 to 100 nM.
In the case of `NC(=O)c1cnn(-c2nc(N3CCN(C(=O)N4N=CC[C@H]4c4ccccc4)CC3)ncc2F)c1` [Compound 111, (S)-1-(5-fluoro-2-(4-(5-phenyl-4,5-dihydro-1H-pyrazole-1-carbonyl)piperazin-1-yl)pyrimidin-4-yl)-1H-pyrazole-4-carboxamide], the EC50 is reported as 0.1 to 100 nM.
With `Cc1cc(-c2nc(N3CCN(C(=O)N4N=CC[C@H]4c4cc(F)cc(F)c4)CC3)ccc2F)n(C)n1` [Compound 115, (S)-(5-(3,5-difluorophenyl)-4,5-dihydro-1H-pyrazol-1-yl)(4-(6-(1,3-dimethyl-1H-pyrazol-5-yl)-5-fluoropyridin-2-yl)piperazin-1-yl)methanone] the EC50 was 0.1 to 100 nM.

Same assay, conditions: Homo sapiens; HT-29 cells, TNF-α 10 ng/ml + SMAC mimetic 6 μM + zVAD-FMK 10 μM, 20 hours; geometric mean, 10 points in duplicate; read-out: EC50 (Cell activity; Necrosis/Necroptosis Inhibitory Activity, Compounds 143-323)
`Cc1nc(C)n(-c2cc(N3CCN(C(=O)N4N=CC[C@H]4c4cc(F)cc(C#N)c4)CC3)c(F)cn2)n1` [Compound 272, (S)-3-(1-(4-(2-(3,5-dimethyl-1H-1,2,4-triazol-1-yl)-5-fluoropyridin-4-yl)piperazine-1-carbonyl)-4,5-dihydro-1H-pyrazol-5-yl)-5-fluorobenzonitrile] showed an EC50 of 0.1 to 100 nM.
`Cc1cnn(C)c1-c1cc(N2CCN(C(=O)N3N=CC[C@H]3c3cc(F)cc(C#N)c3)CC2)c(F)cn1` [Compound 269, (S)-3-(1-(4-(2-(1,4-dimethyl-1H-pyrazol-5-yl)-5-fluoropyridin-4-yl)piperazine-1-carbonyl)-4,5-dihydro-1H-pyrazol-5-yl)-5-fluorobenzonitrile] was tested, and the EC50 was 0.1 to 100 nM.
With `Cc1nc(C)n(-c2nc(N3CCN(C(=O)N4N=CC[C@H]4c4cncc(F)c4)CC3)ncc2F)n1` [Compound 248, (S)-(4-(4-(3,5-dimethyl-1H-1,2,4-triazol-1-yl)-5-fluoropyrimidin-2-yl)piperazin-1-yl)(5-(5-fluoropyridin-3-yl)-4,5-dihydro-1H-pyrazol-1-yl)methanone] the EC50 was 0.1 to 100 nM.
With `Cn1ncnc1-c1ccc(F)c(N2CCN(C(=O)N3N=CC[C@H]3c3cc(F)cc(F)c3)CC2)n1` [Compound 175, (S)-(5-(3,5-difluorophenyl)-4,5-dihydro-1H-pyrazol-1-yl)(4-(3-fluoro-6-(1-methyl-1H-1,2,4-triazol-5-yl)pyridin-2-yl)piperazin-1-yl)methanone] the EC50 was 0.1 to 100 nM.
With `Cc1nnc(-c2nc(N3CCN(C(=O)N4N=CC[C@H]4c4cc(F)cc(C#N)c4)CC3)ncc2F)n1C` [Compound 179, (S)-3-(1-(4-(4-(4,5-dimethyl-4H-1,2,4-triazol-3-yl)-5-fluoropyrimidin-2-yl)piperazine-1-carbonyl)-4,5-dihydro-1H-pyrazol-5-yl)-5-fluorobenzonitrile] the EC50 was 0.1 to 100 nM.
In the case of `Cn1nc(C#N)nc1-c1nc(N2CCN(C(=O)N3N=CCC3c3cncc(F)c3)CC2)ncc1F` (centres unmarked) [Compound 229, 5-(5-fluoro-2-(4-(5-(5-fluoropyridin-3-yl)-4,5-dihydro-1H-pyrazole-1-carbonyl)piperazin-1-yl)pyrimidin-4-yl)-1-methyl-1H-1,2,4-triazole-3-carbonitrile], the EC50 is reported as 0.1 to 100 nM.
Compound `CCn1cnn(-c2nc(N3CCN(C(=O)N4N=CC[C@H]4c4cc(F)cc(F)c4)CC3)ncc2F)c1=O` [Compound 199, (S)-2-(2-(4-(5-(3,5-difluorophenyl)-4,5-dihydro-1H-pyrazole-1-carbonyl)piperazin-1-yl)-5-fluoropyrimidin-4-yl)-4-ethyl-2,4-dihydro-3H-1,2,4-triazol-3-one] has an EC50 of 0.1 to 100 nM.
In the case of `Cc1c(N)nn(C)c1-c1ccnc(N2CCN(C(=O)N3N=CC[C@H]3c3cc(F)cc(C#N)c3)CC2)n1` [Compound 154, (S)-3-(1-(4-(4-(3-amino-1,4-dimethyl-1H-pyrazol-5-yl)pyrimidin-2-yl)piperazine-1-carbonyl)-4,5-dihydro-1H-pyrazol-5-yl)-5-fluorobenzonitrile], the EC50 is reported as 0.1 to 100 nM.
`Cc1c(-c2nc(N3CCN(C(=O)N4N=CC[C@H]4c4cc(F)cc(C#N)c4)CC3)ncc2F)c(CO)nn1C` [Compound 165, (S)-3-fluoro-5-(1-(4-(5-fluoro-4-(3-(hydroxymethyl)-1,5-dimethyl-1H-pyrazol-4-yl)pyrimidin-2-yl)piperazine-1-carbonyl)-4,5-dihydro-1H-pyrazol-5-yl)benzonitrile] showed an EC50 of 0.1 to 100 nM.
For `Cc1nnc(-c2nc(N3CCN(C(=O)N4N=CC[C@H]4c4cc(F)cc(C#N)c4)CC3)ncc2F)o1` [Compound 188, (S)-3-fluoro-5-(1-(4-(5-fluoro-4-(5-methyl-1,3,4-oxadiazol-2-yl)pyrimidin-2-yl)piperazine-1-carbonyl)-4,5-dihydro-1H-pyrazol-5-yl)benzonitrile], the EC50 was 0.1 to 100 nM.
For `Cc1cnn(C)c1-c1ccc(F)c(N2CCN(C(=O)N3N=CCC3c3ncccc3Cl)CC2)n1` (centres unmarked) [Compound 300, (5-(3-chloropyridin-2-yl)-4,5-dihydro-1H-pyrazol-1-yl)(4-(6-(1,4-dimethyl-1H-pyrazol-5-yl)-3-fluoropyridin-2-yl)piperazin-1-yl)methanone], the EC50 was 0.1 to 100 nM.
For `Cc1cc(C(F)(F)F)nn1-c1nc(N2CCN(C(=O)N3N=CC[C@H]3c3cc(F)cc(F)c3)CC2)ncc1F` [Compound 196, (S)-(5-(3,5-difluorophenyl)-4,5-dihydro-1H-pyrazol-1-yl)(4-(5-fluoro-4-(5-methyl-3-(trifluoromethyl)-1H-pyrazol-1-yl)pyrimidin-2-yl)piperazin-1-yl)methanone], the EC50 was 0.1 to 100 nM.
For `Cc1nn(-c2ccnc(N3CCN(C(=O)N4N=CC[C@H]4c4cncc(F)c4)CC3)n2)c(C)c1C#N` [Compound 283, (S)-1-(2-(4-(5-(5-fluoropyridin-3-yl)-4,5-dihydro-1H-pyrazole-1-carbonyl)piperazin-1-yl)pyrimidin-4-yl)-3,5-dimethyl-1H-pyrazole-4-carbonitrile], the EC50 was 0.1 to 100 nM.
Compound `Cn1ncnc1-c1ccc(F)c(N2CCN(C(=O)N3N=CCC3c3ncccc3Cl)CC2)n1` (centres unmarked) [Compound 222, (5-(3-chloropyridin-2-yl)-4,5-dihydro-1H-pyrazol-1-yl)(4-(3-fluoro-6-(1-methyl-1H-1,2,4-triazol-5-yl)pyridin-2-yl)piperazin-1-yl)methanone] has an EC50 of 0.1 to 100 nM.
For `Cn1nc(C(N)=O)nc1-c1nc(N2CCN(C(=O)N3N=CCC3c3cncc(F)c3)CC2)ncc1F` (centres unmarked) [Compound 226, 5-(5-fluoro-2-(4-(5-(5-fluoropyridin-3-yl)-4,5-dihydro-1H-pyrazole-1-carbonyl)piperazin-1-yl)pyrimidin-4-yl)-1-methyl-1H-1,2,4-triazole-3-carboxamide], the EC50 was 0.1 to 100 nM.
Work on `Cc1c(N)nn(C)c1-c1ccnc(N2CCN(C(=O)N3N=CC[C@H]3c3cc(F)cc(F)c3)CC2)n1` [Compound 143, (S)-(4-(4-(3-amino-1,4-dimethyl-1H-pyrazol-5-yl)pyrimidinyl)piperazin-1-yl)(5-(3,5-difluorophenyl)-4,5-dihydro-1H-pyrazol-1-yl)methanone] yielded an EC50 of 0.1 to 100 nM.
Compound `Cc1nc(C)n(-c2nc(N3CCN(C(=O)N4N=CC[C@H]4c4cnc(C)s4)CC3)ncc2F)n1` [Compound 240, (S)-(4-(4-(3,5-dimethyl-1H-1,2,4-triazol-1-yl)-5-fluoropyrimidin-2-yl)piperazin-1-yl)(5-(2-methylthiazol-5-yl)-4,5-dihydro-1H-pyrazol-1-yl)methanone] has an EC50 of 0.1 to 100 nM.
In the case of `Cn1nc(C#N)nc1-c1nc(N2CCN(C(=O)N3N=CCC3c3cc(F)cc(F)c3)CC2)ncc1F` (centres unmarked) [Compound 228, 5-(2-(4-(5-(3,5-difluorophenyl)-4,5-dihydro-1H-pyrazole-1-carbonyl)piperazin-1-yl)-5-fluoropyrimidin-4-yl)-1-methyl-1H-1,2,4-triazole-3-carbonitrile], the EC50 is reported as 0.1 to 100 nM.
For `Cc1cnn(C)c1-c1ccc(F)c(N2CCN(C(=O)N3N=CCC3c3cccnc3)CC2)n1` (centres unmarked) [Compound 295, (4-(6-(1,4-dimethyl-1H-pyrazol-5-yl)-3-fluoropyridin-2-yl)piperazin-1-yl)(5-(pyridin-3-yl)-4,5-dihydro-1H-pyrazol-1-yl)methanone], the EC50 was 0.1 to 100 nM.
